Data reported in publication PMC8373216, “Development and Preclinical Evaluation of New Inhaled Lipoglycopeptides for the Treatment of Persistent Pulmonary Methicillin-Resistant Staphylococcus aureus Infections” (Antimicrobial Agents and Chemotherapy, 2021).
Where two headings read alike, the source gives them in different places.

Key:
[1] = test system: Streptococcus pyogenes; assay: Expanded panel broth microdilution MIC/MBC; type: cell-based
[2] = test system: Streptococcus oralis; assay: Expanded panel broth microdilution MIC; type: cell-based
[3] = test system: Streptococcus anginosus; assay: Expanded panel broth microdilution MIC/MBC; type: cell-based; details: for MIC: Streptococcus anginosus
[4] = test system: S. aureus; assay: Expanded panel broth microdilution MIC/MBC; details: for MIC: Staphylococcus aureus
[5] = test system: MRSA ATCC BAA 1556 (USA300) biofilm; assay: Static MRSA biofilm killing, plastic microtiter plate, MEM; details: for Concentrations with statistically significant reduction versus control biofilm: two-way ANOVA, Bonferroni
[6] = test system: Streptococcus dysgalactiae; assay: Expanded panel broth microdilution MIC/MBC; type: cell-based; details: for MIC:MBC: MBC on one organism; for MIC: Streptococcus dysgalactiae
[7] = test system: Staphylococcus hominis; assay: Expanded panel broth microdilution MIC; type: cell-based
[8] = test system: Staphylococcus haemolyticus; assay: Expanded panel broth microdilution MIC; type: cell-based
[9] = test system: Streptococcus constellatus; assay: Expanded panel broth microdilution MIC; type: cell-based
[10] = test system: Streptococcus agalactiae; assay: Expanded panel broth microdilution MIC/MBC; type: cell-based; details: for MIC:MBC: MBC on one organism
[11] = test system: Peptostreptococcus anaerobius; assay: Expanded panel broth microdilution MIC; type: cell-based
[12] = test system: Peptostreptococcus micros; assay: Expanded panel broth microdilution MIC; type: cell-based
[13] = test system: MSSA ATCC 29213; assay: In-house broth microdilution MIC screening; type: cell-based; details: Staphylococcus aureus, read-out: MIC Value, MSSA ATCC 29213
[14] = test system: Enterococcus faecalis; assay: Expanded panel broth microdilution MIC/MBC; type: cell-based
[15] = test system: Eggerthella lenta; assay: Expanded panel broth microdilution MIC; type: cell-based
[16] = S. aureus MRSA, MBC median of n = 5
[17] = S. aureus MSSA, MBC on one organism
[18] = S. aureus VISA, MBC median of n = 2
[19] = S. aureus hVISA, MBC on one organism
[20] = ATCC13709 / MSSA, S. aureus ATCC 13709, MSSA
[21] = ATCC29213 / MSSA, S. aureus ATCC 29213, MSSA
[22] = ATCC43300 / MRSA, S. aureus ATCC 43300, MRSA
[23] = ATCCBAA1556|MRSA|USA300, S. aureus ATCC BAA-1556, MRSA, USA300 (expanded panel)
[24] = ATCCBAA1756|MRSA|NRS384|USA300, S. aureus NRS 384, ATCC BAA-1756, MRSA, USA300
[25] = MRSA / NRS123 / USA400, S. aureus NRS123, MRSA, USA400
[26] = MRSA / NRS725 / USA300, S. aureus NRS725, MRSA, USA300
[27] = MRSA / USA300, S. aureus MMX 3982, MRSA, USA300
[28] = MRSA, read-out: MIC (median), S. aureus MRSA, 12 isolates
[29] = MSSA, read-out: MIC (median), S. aureus MSSA, 4 isolates
[30] = NRS1 / VISA, S. aureus NRS1, VISA, Mu50
[31] = NRS2, S. aureus NRS2, hVISA;Mu3
[32] = NRS4 / VISA, S. aureus NRS4, VISA
[33] = NRS13 / VISA, S. aureus NRS13, VISA
[34] = NRS22 / VISA, S. aureus NRS22, VISA
[35] = NRS52 / VISA, S. aureus NRS52, VISA
[36] = VISA, read-out: MIC (median), S. aureus VISA, 5 isolates
[37] = read-out: MIC (median), S. aureus hVISA, 2 isolates
[38] = E. faecalis VSE, MBC on one organism
[39] = E. faecalis VanA VRE, 1 isolate

CCCCCCCCCCNCCN[C@@]1(C)C[C@H](O[C@H]2[C@H](Oc3c4cc5cc3Oc3ccc(cc3Cl)[C@@H](O)[C@@H](NC(=O)[C@@H](CC(C)C)NC)C(=O)N[C@@H](CC(N)=O)C(=O)N[C@H]5C(=O)N[C@H]3C(=O)N[C@H](C(=O)N[C@H](C(=O)O)c5cc(O)c(CNCP(=O)(O)O)c(O)c5-c5cc3ccc5O)[C@H](O)c3ccc(c(Cl)c3)O4)O[C@H](CO)[C@@H](O)[C@@H]2O)O[C@@H](C)[C@H]1O [Telavancin, telavancin]
8: MIC:MBC ([14]; E. faecalis VanA VRE)
4: MIC:MBC ([6]; S. dysgalactiae)
1 µg/mL: MIC [14, 39] | MIC ([14]; Enterococcus faecalis, VRE)
0.063 µg/mL: MIC [13]
0.25 µg/mL: MIC [4, 32] | MIC ([4]; NRS23, S. aureus NRS23, hVISA) | MIC [4, 35] | MIC [4, 36] | MIC ([6]; S. dysgalactiae MMX 5123) | MIC ([14]; Enterococcus faecalis)
0.5 µg/mL: MIC [4, 30] | MIC [4, 34]
approximately 2 log10 CFU/ml: Reduction in MRSA biofilm titer versus control ([5]; doses 1 to 10 μg/ml)
1: MIC:MBC ([1]; S. pyogenes ermR) | MIC:MBC [4, 16] | MIC:MBC [4, 17] | MIC:MBC [4, 18] | MIC:MBC [4, 19]
0.06 µg/mL: MIC ([1]; S. pyogenes MMX 946, ermR) | MIC ([1]; S. pyogenes ermR, 1 isolate) | MIC ([1]; Streptococcus pyogenes) | MIC ([1]; Streptococcus pyogenes, ATCC19615) | MIC ([1]; Streptococcus pyogenes, read-out: MIC (median)) | MIC ([2]; S. oralis MGS, 1 isolate) | MIC ([2]; Streptococcus oralis) | MIC [3] | MIC ([3]; ATCC33397) | MIC [4, 21] | MIC [4, 22] | MIC [4, 23] | MIC [4, 24] | MIC [4, 25] | MIC [4, 26] | MIC [4, 27] | MIC ([4]; MRSA, S. aureus MMX 5715, MRSA) | MIC ([4]; MRSA, S. aureus MMX 7899, MRSA) | MIC ([4]; MRSA, S. aureus MMX 7900, MRSA) | MIC ([4]; MRSA, S. aureus MMX 7902, MRSA) | MIC ([4]; MRSA, S. aureus MMX 7903, MRSA) | MIC [4, 28] | MIC ([4]; MSSA, S. aureus MMX 7907, MSSA) | MIC [7] | MIC ([7]; ATCC27844) | MIC [8] | MIC ([8]; ATCC29970) | MIC ([10]; S. agalactiae MMX 4115, ermR) | MIC ([10]; S. agalactiae ermR, 1 isolate) | MIC ([10]; Streptococcus agalactiae) | MIC ([10]; Streptococcus agalactiae, ATCC13813) | MIC ([10]; Streptococcus agalactiae, read-out: MIC (median))
0.09 µg/mL: MIC [4, 29]
>8: MIC:MBC ([3]; S. anginosus AGS) | MIC:MBC ([10]; S. agalactiae) | MIC:MBC [14, 38]
0.12 µg/mL: MIC [4, 20] | MIC ([4]; MSSA, S. aureus MMX 7908, MSSA) | MIC [4, 31] | MIC [4, 33] | MIC ([6]; S. dysgalactiae MMX 5121) | MIC ([6]; read-out: MIC (median), S. dysgalactiae, 3 isolates) | MIC ([12]; P. micros, 1 isolate) | MIC ([12]; Parvimonas micra) | MIC ([14]; Enterococcus faecalis, ATCC29212)
≥ 10 µg/mL: Concentrations with statistically significant reduction versus control biofilm [5]
0.03 µg/mL: MIC ([4]; MRSA, S. aureus MMX 7901, MRSA) | MIC ([6]; S. dysgalactiae MMX 5124) | MIC ([9]; S. constellatus AGS, 1 isolate) | MIC ([9]; Streptococcus constellatus) | MIC [11] | MIC ([11]; ATCC27337)
0.19 µg/mL: MIC [4, 37] | MIC ([14]; Enterococcus faecalis, read-out: MIC (median))

CCCCCCCCCCNC(=O)CNC1(C)CC(OC2C(Oc3c4cc5cc3Oc3ccc(cc3Cl)C(O)C3NC(=O)C(NC(=O)C5NC(=O)C(CC(N)=O)NC(=O)C(NC(=O)C(CC(C)C)NC)C(O)c5ccc(c(Cl)c5)O4)c4ccc(O)c(c4)-c4c(O)cc(O)cc4C(C(=O)O)NC3=O)OC(CO)C(O)C2O)OC(C)C1O (centres unmarked) [RV94]
2: MIC:MBC [4, 18]
1 log10 CFU/ml: Reduction in MRSA biofilm titer versus control ([5]; 2.5 μg/ml)
1: MIC:MBC ([1]; S. pyogenes ermR) | MIC:MBC [4, 16]
0.25 µg/mL: MIC [4, 30]
0.012 µg/mL: MIC ([1]; Streptococcus pyogenes, S. pyogenes, 2 isolates, read-out: MIC (median))
2 fold: MIC, fold activity reduction compared to RV40 ([4]; VISA) | MIC, fold enhancement compared to telavancin ([4]; hVISA and VISA (both strains))
0.03 µg/mL: MIC [4, 20] | MIC [4, 23] | MIC ([4]; MRSA, S. aureus MMX 7902, MRSA) | MIC ([4]; MSSA, S. aureus MMX 7907, MSSA) | MIC [4, 31] | MIC ([6]; S. dysgalactiae MMX 5123, read-out: MIC) | MIC ([7]; ATCC27844, S. hominis ATCC 27844, read-out: MIC) | MIC ([7]; S. hominis, 1 isolate, read-out: MIC) | MIC ([10]; Streptococcus agalactiae, ATCC13813, S. agalactiae ATCC 13813, read-out: MIC) | MIC [14, 39] | MIC ([14]; Enterococcus faecalis, ATCC29212, E. faecalis ATCC 29212, VSE, read-out: MIC) | MIC ([14]; Enterococcus faecalis, E. faecalis MMX 1086, VanA VRE, read-out: MIC) | MIC ([14]; Enterococcus faecalis, E. faecalis MMX 4176, VSE, read-out: MIC) | MIC ([14]; Enterococcus faecalis, E. faecalis VSE, 2 isolates, read-out: MIC (median))
30 fold: MIC, fold enhancement in comparison to vancomycin ([4]; VISA)
8: MIC:MBC [4, 17] | MIC:MBC [4, 19]
no statistical significance: Concentrations with statistically significant reduction versus control biofilm [5]
>8: MIC:MBC ([3]; S. anginosus AGS) | MIC:MBC [14, 38] | MIC:MBC ([14]; E. faecalis VanA VRE)
0.015 µg/mL: MIC ([1]; Streptococcus pyogenes, ATCC19615, S. pyogenes ATCC 19615, read-out: MIC) | MIC ([2]; S. oralis MGS, 1 isolate) | MIC ([2]; Streptococcus oralis, S. oralis (MGS) MMX 5821, read-out: MIC) | MIC ([3]; ATCC33397, S. anginosus (AGS) ATCC 33397, read-out: MIC) | MIC ([3]; S. anginosus AGS, 1 isolate, read-out: MIC) | MIC [4, 21] | MIC [4, 22] | MIC [4, 24] | MIC [4, 25] | MIC [4, 26] | MIC [4, 27] | MIC ([4]; MRSA, S. aureus MMX 7899, MRSA) | MIC ([4]; MRSA, S. aureus MMX 7900, MRSA) | MIC ([4]; MRSA, S. aureus MMX 7901, MRSA) | MIC ([4]; MRSA, S. aureus MMX 7903, MRSA) | MIC [4, 28] | MIC ([4]; MSSA, S. aureus MMX 7908, MSSA)
0.12 µg/mL: MIC [4, 33] | MIC [4, 34] | MIC ([4]; NRS23, S. aureus NRS23, hVISA) | MIC [4, 36]
0.06 µg/mL: MIC [4, 32] | MIC [4, 35] | MIC ([8]; ATCC29970, S. haemolyticus ATCC 29970, read-out: MIC) | MIC ([8]; S. haemolyticus, 1 isolate, read-out: MIC)
4 µg/mL: MIC ([4]; VRSA, read-out: MIC (median), S. aureus VRSA, 12 isolates (JMI Laboratories))
3 fold: MIC, fold activity reduction compared to RV40 ([4]; hVISA)
0.008 µg/mL: MIC ([1]; Streptococcus pyogenes, S. pyogenes MMX 946, ermR, read-out: MIC) | MIC ([1]; Streptococcus pyogenes, S. pyogenes MMX 8778, read-out: MIC) | MIC ([1]; Streptococcus pyogenes, S. pyogenes ermR, 1 isolate, read-out: MIC) | MIC ([15]; ATCC43055, E. lenta ATCC 43055, read-out: MIC) | MIC ([15]; E. lenta, 1 isolate, read-out: MIC) | MIC ([6]; S. dysgalactiae MMX 5121, read-out: MIC) | MIC ([6]; S. dysgalactiae MMX 5124, read-out: MIC) | MIC ([6]; S. dysgalactiae, 3 isolates, read-out: MIC (median)) | MIC ([9]; S. constellatus AGS, 1 isolate) | MIC ([9]; Streptococcus constellatus, S. constellatus (AGS) MMX 5677, read-out: MIC) | MIC ([10]; Streptococcus agalactiae, S. agalactiae MMX 4088, read-out: MIC) | MIC ([11]; ATCC27337, P. anaerobius ATCC 27337, read-out: MIC) | MIC ([11]; P. anaerobius, 1 isolate, read-out: MIC)
18 fold: MIC, fold enhancement in comparison to vancomycin ([4]; hVISA)
0.004 µg/mL: MIC ([10]; Streptococcus agalactiae, S. agalactiae MMX 4115, ermR, read-out: MIC) | MIC ([10]; Streptococcus agalactiae, S. agalactiae ermR, 1 isolate, read-out: MIC)
0.023 µg/mL: MIC [4, 29]
0.02 µg/mL: MIC ([10]; Streptococcus agalactiae, S. agalactiae, 2 isolates, read-out: MIC (median))
0.08 µg/mL: MIC [4, 37]
approximately 2 log10 CFU/ml: Reduction in MRSA biofilm titer versus control ([5]; doses 1 to 10 μg/ml)
4: MIC:MBC ([6]; S. dysgalactiae) | MIC:MBC ([10]; S. agalactiae)
0.031 µg/mL: MIC ([13]; broth microdilution)
